Measured values: patent US9458113B2 (Boehringer Ingelheim International GmbH, priority 2014, dated 2016)
≈ marks a conversion by molar mass, not a printed value.

What was measured:
[1] = target: Human neutrophil elastase (Homo sapiens (Human), UniProt P08246); test: Human Neutrophil Elastase Assay; format: biochemical; details: substrate MeOSuc-Ala-Ala-Pro-Val-AMC 250 μM, pH 7.5
[2] = Metabolic stability with human liver microsomes; format: in vitro ADME; details: pH 7.6; pooled human liver microsomes, 1 μM test compound, 37° C.; read-out: t1/2 INVITRO
human hepatocytes = test: Metabolic stability with human hepatocytes; format: in vitro ADME; details: 1 μM test compound, well stirred model
Protocol: Assay for the Determination of Metabolic Stability with Human Hepatocytes
The metabolic degradation of the test compound is assayed in a human hepatocyte suspension. Human hepatocytes (typically cryopreserved) are incubated in an appropriate buffer system (e.g. Dulbecco's modified eagle medium plus 3.5 μg glucagon/500 mL, 2.5 mg insulin/500 mL and 3.75 mg/500 mL hydrocortison) containing 5% species serum. Following a (typically) […] preincubation in an incubator (37° C., 10% CO2), 5 μl of test compound solution (80 μM; from […] stock solution in DMSO diluted 1:25 with medium) are added into 395 μl hepatocyte suspension (cell density in the range 0.25-5*10^6 cells/mL, typically 1*10^6 cells/mL; final concentration of test compound 1 μM, final DMSO concentration 0.05%). The cells are incubated for six hours (incubator, orbital shaker) and samples (25 μl) are taken at 0, 0.5, 1, 2, 4 and 6 hours. Samples are transferred into acetonitrile and pelleted by centrifugation (5 min) The supernatant is transferred to a new 96-deepwell plate, evaporated under nitrogen and resuspended. The decline of parent compound is analyzed by LC-MS/MS.
The intrinsic clearance CL_[…] is calculated as follows: CL_[…]=Dose/AUC=(C0/CD)/(AUD+clast/k)*1,000/60
(C0: initial concentration in the incubation [μM], CD: cell density of vital cells [10^6 cells/mL], AUD: area under the data [μM*h], clast: concentration of last data point [μM], k: slope of the regression line for parent decline [h^−1])
The calculated in vitro hepatic intrinsic clearance Qh can be scaled up to the intrinsic in vivo hepatic clearance and used to predict hepatic in vivo blood clearance (CL) by the use of a liver model (well stirred model): CL_[…]_INVIVO [ml/min/kg]=(CL_[…] [μL/min/10^6 cells]*hepatocellularity [10^6 cells/g liver]*liver factor [g/kg bodyweight])/1,000 CL [ml/min/kg]=CL_[…]_INVIVO [ml/min/kg]*hepatic blood flow [ml/min/kg]/(CL_[…]_INVIVO [ml/min/kg]+hepatic blood flow [ml/min/kg]) Qh [%]=CL [ml/min/kg]/hepatic blood flow [ml/min/kg])
(Hepatocellularity, human: 120*10^6 cells/g liver; liver factor, human: 25.7 g/kg bodyweight; blood flow, human: 21 ml/(min*kg))
The calculated in-vitro hepatic intrinsic clearance values of selected compounds in the metabolic stability assay with human hepatocytes described above are listed in Table 15.

[3] = Aqueous solubility (High Throughput Method); format: physicochemical; details: McIlvaine buffer pH 6.8 with 2.5% DMSO, kinetic from dmso stock, McIlvaine buffer pH 6.8, 2.5% DMSO, 24 h shaking
Protocol: Assay for Determination of Aqueous Solubility (“High Throughput Method”)
Starting from a […] DMSO stock solution, aliquots are diluted with acetonitrile/water (1/1) and McIlvaine buffer pH 6.8, respectively. After 24 h of shaking, the solutions or suspensions are filtered and analyzed by LC-UV. The amount dissolved in buffer is compared to the amount dissolved in the acetonitrile/water (1/1) solution. Solubility is measured from 0.001 to 0.125 mg/ml at a DMSO concentration of 2.5%. If more than 90% of the compound is dissolved in buffer, the value is marked with “>”.

[4] = Aqueous solubility (Shaked Flask Method); format: physicochemical; details: aqueous buffer, thermodynamic from solid, pH 6.8
Protocol: Assay for Determination of Aqueous Solubility (“Shaked Flask Method”)
Saturated solutions are prepared in well plates by adding an appropriate volume of selected aqueous media (typically in the range of 0.25-1.5 ml) into each well which contains a known quantity of solid drug substance (typically in the range 0.5-5.0 mg). The wells are shaken or stirred for a predefined time period (typically in a range of 2-24 h) and then filtered using appropriate filter membranes (typically PTFE-filters with 0.45 μm pore size). Filter absorption is avoided by discarding the first few drops of filtrate. The amount of dissolved drug substance is determined by UV spectroscopy or by HPLC with UV-detection. In addition, the pH of the aqueous saturated solution is measured using a glass-electrode pH meter.

cytochrome P450 2C9 = cytochrome P450 2C9 (Homo sapiens (Human), UniProt P11712); test: Cytochrome P450 2C9 inhibition; format: in vitro ADME; details: human liver microsomes, Diclofenac hydroxylation; read-out: IC50 (CYP 2C9)
Description: Assay for Determination of Cytochrome P450 2C9 Inhibition
(§1) (I=inhibitor concentration, S=slope factor, B=background activity)

cytochrome P450 2C19 = cytochrome P450 2C19 (Homo sapiens (Human), UniProt P33261); test: Cytochrome P450 2C19 inhibition; format: in vitro ADME; details: human liver microsomes, (S)-Mephenytoin hydroxylation; read-out: IC50 (CYP 2C19)
Description: Assay for Determination of Cytochrome P450 2C19 Inhibition
as §1

cytochrome P450 2C8 = cytochrome P450 2C8 (Homo sapiens (Human), UniProt P10632); test: Cytochrome P450 2C8 inhibition; format: in vitro ADME; details: human liver microsomes, Amodiaquine deethylation; read-out: IC50 (CYP 2C8)
Description: Assay for Determination of Cytochrome P450 2C8 Inhibition
as §1

[5] = target: hERG (human ether-a-go-go-related gene) potassium channel (Homo sapiens (Human), UniProt Q12809); test: hERG inhibition patch clamp assay; format: cell-based
hERG potassium channel = hERG potassium channel (Homo sapiens (Human), UniProt Q12809); test: hERG inhibition patch clamp assay; format: cell-based; details: human, @ 10 μM
Sequence of hERG potassium channel (Q12809 whole entry): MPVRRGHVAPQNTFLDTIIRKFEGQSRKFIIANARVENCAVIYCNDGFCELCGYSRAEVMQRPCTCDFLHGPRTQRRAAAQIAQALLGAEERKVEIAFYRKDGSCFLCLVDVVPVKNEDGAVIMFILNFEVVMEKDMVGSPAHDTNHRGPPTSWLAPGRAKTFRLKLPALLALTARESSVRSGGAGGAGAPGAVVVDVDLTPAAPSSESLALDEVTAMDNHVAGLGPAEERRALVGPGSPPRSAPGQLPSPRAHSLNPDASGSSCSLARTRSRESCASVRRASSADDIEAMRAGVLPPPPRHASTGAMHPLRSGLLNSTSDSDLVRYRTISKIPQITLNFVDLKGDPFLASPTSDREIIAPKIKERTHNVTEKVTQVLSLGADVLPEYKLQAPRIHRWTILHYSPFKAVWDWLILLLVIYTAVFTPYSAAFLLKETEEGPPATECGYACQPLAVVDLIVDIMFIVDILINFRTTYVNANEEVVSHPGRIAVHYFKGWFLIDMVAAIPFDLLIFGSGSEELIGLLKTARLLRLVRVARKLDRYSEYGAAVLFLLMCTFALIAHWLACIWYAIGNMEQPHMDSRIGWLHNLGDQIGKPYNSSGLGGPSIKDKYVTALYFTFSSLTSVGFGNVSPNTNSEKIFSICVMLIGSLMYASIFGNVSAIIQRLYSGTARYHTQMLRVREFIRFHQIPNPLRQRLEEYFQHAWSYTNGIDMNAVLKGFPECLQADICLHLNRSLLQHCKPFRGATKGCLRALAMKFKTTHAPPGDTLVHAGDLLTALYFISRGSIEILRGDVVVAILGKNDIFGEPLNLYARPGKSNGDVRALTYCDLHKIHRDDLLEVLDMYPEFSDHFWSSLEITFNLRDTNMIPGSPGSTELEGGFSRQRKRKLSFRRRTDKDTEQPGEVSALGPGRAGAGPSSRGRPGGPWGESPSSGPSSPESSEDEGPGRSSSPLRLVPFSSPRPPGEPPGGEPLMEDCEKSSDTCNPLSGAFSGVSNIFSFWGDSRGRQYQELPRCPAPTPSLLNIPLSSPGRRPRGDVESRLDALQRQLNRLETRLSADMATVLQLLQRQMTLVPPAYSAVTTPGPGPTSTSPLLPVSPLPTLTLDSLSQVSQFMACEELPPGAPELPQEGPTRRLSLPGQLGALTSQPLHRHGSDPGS

Sequence of cytochrome P450 2C19 (P33261 whole entry): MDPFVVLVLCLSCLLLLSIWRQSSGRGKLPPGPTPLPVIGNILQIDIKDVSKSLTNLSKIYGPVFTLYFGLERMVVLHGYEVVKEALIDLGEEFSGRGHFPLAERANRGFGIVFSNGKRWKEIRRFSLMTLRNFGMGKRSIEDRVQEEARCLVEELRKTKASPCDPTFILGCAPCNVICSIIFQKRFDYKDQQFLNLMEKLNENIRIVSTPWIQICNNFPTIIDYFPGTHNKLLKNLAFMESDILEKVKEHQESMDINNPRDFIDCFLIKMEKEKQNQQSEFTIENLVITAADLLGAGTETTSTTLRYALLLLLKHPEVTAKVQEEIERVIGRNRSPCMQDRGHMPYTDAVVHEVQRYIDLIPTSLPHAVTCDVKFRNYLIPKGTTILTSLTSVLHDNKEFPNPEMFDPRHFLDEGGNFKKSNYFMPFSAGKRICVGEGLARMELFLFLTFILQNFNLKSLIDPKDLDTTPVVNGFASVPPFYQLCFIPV
Sequence of cytochrome P450 2C8 (P10632 whole entry): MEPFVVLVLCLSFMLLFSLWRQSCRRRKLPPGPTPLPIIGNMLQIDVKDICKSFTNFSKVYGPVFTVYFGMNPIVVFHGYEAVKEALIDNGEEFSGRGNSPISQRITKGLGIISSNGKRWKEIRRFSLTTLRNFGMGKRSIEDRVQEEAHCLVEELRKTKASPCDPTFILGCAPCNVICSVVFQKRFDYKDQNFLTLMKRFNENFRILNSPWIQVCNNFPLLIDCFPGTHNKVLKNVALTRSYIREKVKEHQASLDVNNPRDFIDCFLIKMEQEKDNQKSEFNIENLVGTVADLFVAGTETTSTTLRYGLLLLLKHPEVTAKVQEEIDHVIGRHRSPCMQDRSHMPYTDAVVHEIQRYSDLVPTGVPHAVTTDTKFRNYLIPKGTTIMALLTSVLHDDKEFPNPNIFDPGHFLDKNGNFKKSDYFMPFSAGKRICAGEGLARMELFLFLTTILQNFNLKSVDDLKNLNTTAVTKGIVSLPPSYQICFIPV
Sequence of hERG (human ether-a-go-go-related gene) potassium channel (Q12809 whole entry): as the sequence (Q12809 whole entry) above
Sequence of cytochrome P450 2C9 (P11712 whole entry): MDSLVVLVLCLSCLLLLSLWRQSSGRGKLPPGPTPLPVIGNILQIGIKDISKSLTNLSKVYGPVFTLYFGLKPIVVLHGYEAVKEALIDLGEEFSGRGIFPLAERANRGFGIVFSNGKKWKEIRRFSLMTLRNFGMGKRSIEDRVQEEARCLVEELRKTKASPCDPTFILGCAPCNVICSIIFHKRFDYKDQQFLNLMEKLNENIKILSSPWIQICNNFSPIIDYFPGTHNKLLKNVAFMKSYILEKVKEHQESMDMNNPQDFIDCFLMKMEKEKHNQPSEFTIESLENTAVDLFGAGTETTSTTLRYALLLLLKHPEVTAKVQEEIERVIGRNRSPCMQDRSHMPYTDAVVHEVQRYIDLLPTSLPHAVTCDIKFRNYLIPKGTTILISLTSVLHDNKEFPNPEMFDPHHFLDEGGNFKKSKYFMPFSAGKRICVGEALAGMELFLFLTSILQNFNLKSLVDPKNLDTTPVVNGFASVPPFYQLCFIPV
Sequence of Human neutrophil elastase (P08246 30-247): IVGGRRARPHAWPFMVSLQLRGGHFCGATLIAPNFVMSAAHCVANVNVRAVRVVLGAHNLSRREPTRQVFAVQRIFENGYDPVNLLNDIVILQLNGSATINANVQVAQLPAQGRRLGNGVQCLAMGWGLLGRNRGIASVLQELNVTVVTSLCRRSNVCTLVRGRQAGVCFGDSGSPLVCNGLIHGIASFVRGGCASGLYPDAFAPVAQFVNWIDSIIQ

| SMILES | IC50 [1] [µM] | half-life at 1 μM [2] [h] | Qh (human hepatocytes) [%] | solubility at 24 h [3] [mg/mL] | solubility [4] [mg/mL] | IC50 (cytochrome P450 2C9) [µM] | IC50 (cytochrome P450 2C19) [µM] | IC50 (cytochrome P450 2C8) [µM] | IC50 [5] [µM] | inhibition at 10 µM (hERG potassium channel) [%] |
| --- | --- | --- | --- | --- | --- | --- | --- | --- | --- | --- |
| CN1C(=O)N(c2cccc(C(F)(F)F)c2)C2=C(C(=O)CC2)[C@H]1c1ccc(C#N)cc1C(N)=O [Example 2, 5-Cyano-2-[(R)-3-methyl-2,5-dioxo-1-(3-trifluoromethyl-phenyl)-2,3,4,5,6,7-hexahydro-1H-cyclopentapyrimidin-4-yl]-benzamide] | 0.0024 | > 2.17 | 12 | 0.084 (≈ 185 µM) | > 0.01 | > 50 | > 50 | > 50 | > 30 | 4 |
| CN1C(=O)N(c2cccc(C(F)(F)F)c2)C2=C(C(=O)CC2)[C@H]1c1ccc(C#N)cc1-c1ccc(=O)n(C)c1 [Example 23, 4-[(R)-3-Methyl-2,5-dioxo-1-(3-trifluoromethyl-phenyl)-2,3,4,5,6,7-hexahydro-1H-cyclopentapyrimidin-4-yl]-3-(1-methyl-6-oxo-1,6-dihydro-pyridin-3-yl)-benzonitrile] | < 0.001 | > 2.17 | 13 | 0.053 (≈ 102 µM) | > 0.01 | > 50 | > 50 | > 50 | > 30 | 5 |
| CN1C(=O)N(c2cccc(C(F)(F)F)c2)C2=C(C(=O)CC2)[C@H]1c1ccc(C#N)cc1CNC(C)(C)C [Example 24, 3-(tert-Butylamino-methyl)-4-[(R)-3-methyl-2,5-dioxo-1-(3-trifluoromethyl-phenyl)-2,3,4,5,6,7-hexahydro-1H-cyclopentapyrimidin-4-yl]-benzonitrile] | 0.0019 | > 2.17 | 10 | 0.048 (≈ 96.7 µM) | > 0.01 | > 50 | > 50 | > 50 | > 30 | 7 |
